Test results from PubChem BioAssay (NCI).
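Five concentrations, 48 hours, 96-well plates. The concentration for full growth arrest is given as TGI.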

Experiments:
Assay in all cases: DTP human tumour cell line panel, 48 h
[1] = test system: RXF 393 renal
[2] = test system: OVCAR-3 ovarian
[3] = test system: HT29 colon
[4] = test system: OVCAR-8 ovarian
[5] = test system: CAKI-1 renal
[6] = test system: UACC-62 melanoma
[7] = test system: SK-OV-3 ovarian
[8] = test system: SF-268 CNS
[9] = test system: PC-3 prostate
[10] = test system: NCI-H460 lung
[11] = test system: MCF7 breast
[12] = test system: UO-31 renal
[13] = test system: LOX IMVI melanoma
[14] = test system: NCI/ADR-RES ovarian
[15] = test system: K-562 leukemia
[16] = test system: MOLT-4 leukemia
[17] = test system: NCI-H226 lung
[18] = test system: MDA-MB-231 breast
[19] = test system: HOP-62 NSCLC
[20] = test system: HOP-92 NSCLC

Row | Structure (SMILES) | TGI [1] [µM] | TGI [2] [µM] | TGI [3] [µM] | TGI [4] [µM] | TGI [5] [µM] | TGI [6] [µM] | TGI [7] [µM] | TGI [8] [µM] | TGI [9] [µM] | TGI [10] [µM] | TGI [11] [µM] | TGI [12] [µM] | TGI [13] [µM] | TGI [14] [µM] | TGI [15] [µM] | TGI [16] [µM] | TGI [17] [µM] | TGI [18] [µM] | TGI [19] [µM] | TGI [20] [µM]
1 | Oc1ccc(-c2nc3ccc(Cl)cc3s2)cc1 | 44 | 40.7 | 34.6 | 39 | 36.5 | 31.2 | 36.4 | 33.8 | 37.5 | 36.1 | 22.6 | 27.8 | 45.9 | 57.1 | > 100 | > 100 | 41.6 | 45.5 | – | –
2 | CC(=O)C1CC[C@@H]2[C@H](CC[C@]3(C)[C@@H](O)CC[C@@H]23)[C@H]1C(=O)O (stereo partly specified) | > 100 | > 100 | > 100 | > 100 | > 100 | > 100 | > 100 | > 100 | > 100 | > 100 | > 100 | > 100 | – | > 100 | > 100 | > 100 | – | > 100 | > 100 | > 100
3 | COc1cc(C(O)(CC#N)c2cc3c(cc2Br)OCO3)cc(OC)c1OC (stereo unspecified) | > 100 | > 100 | 54.9 | > 100 | 75.8 | > 100 | > 100 | > 100 | > 100 | 50.8 | > 100 | > 100 | > 100 | > 100 | > 100 | > 100 | 83.3 | 54.5 | 35.9 | > 100
4 | CCCC(=O)Nc1cc(/C=C/C(=O)N2CC(CCl)c3c2cc(O)c2[nH]cc(C)c32)n(C)c1 (stereo unspecified) | < 2.5e-05 | – | 0.0285 | 0.000532 | < 2.5e-05 | < 2.5e-05 | 0.00563 | < 2.5e-05 | – | – | – | – | 0.0163 | 0.00372 | > 0.25 | 0.0121 | 4e-05 | 0.0344 | < 2.5e-05 | < 2.5e-05
